Reference: PubChem BioAssay AID1963438 (Molecular Pharmacology Branch, DTP, NCI, 2024)
pIC50: −log10 of the molar value. Where “and” joins values, the source holds several entries; their conditions need not be identical. Identical values can stand only once.

Tested on: NCI-H510 multicellular tumor spheroid growth, % test/control
Assay: Anticancer human tumor NCI-H510 cell line growth inhibition [Asc];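 note: spheroids exposed to agents for 7 days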;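 for viability, T/C: 100% = DMSO vehicle control wells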
Settings: for viability, T/C: stronger effect = lower value
How it was run: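 Tumor cells were grown as multicellular spheroids with stromal HUVEC and mesenchymal stem cells and treated singly or in combination. Concentrations fell in half-log steps from the clinical Cmax, or from 10 microM where none was known.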

[1] = curve of first compound, second compound 0.03 µM
[2] = curve of first compound, second compound 0.0949 µM
[3] = curve of first compound, second compound 0.3 µM
[4] = curve of first compound, second compound 0.949 µM
[5] = curve of first compound, second compound 3 µM
[6] = second compound 0.03 µM, first compound 0.00949 µM
[7] = second compound 0.03 µM, first compound 0.03 µM
[8] = second compound 0.03 µM, first compound 0.0949 µM
[9] = second compound 0.03 µM, first compound 0.3 µM
[10] = second compound 0.0949 µM, first compound 0.00949 µM
[11] = second compound 0.0949 µM, first compound 0.03 µM
[12] = second compound 0.0949 µM, first compound 0.0949 µM
[13] = second compound 0.0949 µM, first compound 0.3 µM
[14] = second compound 0.3 µM, first compound 0.00949 µM
[15] = second compound 0.3 µM, first compound 0.03 µM
[16] = second compound 0.3 µM, first compound 0.0949 µM
[17] = second compound 0.3 µM, first compound 0.3 µM
[18] = second compound 0.949 µM, first compound 0.00949 µM
[19] = second compound 0.949 µM, first compound 0.03 µM
[20] = second compound 0.949 µM, first compound 0.0949 µM
[21] = second compound 0.949 µM, first compound 0.3 µM
[22] = second compound 3 µM, first compound 0.00949 µM
[23] = second compound 3 µM, first compound 0.03 µM
[24] = second compound 3 µM, first compound 0.0949 µM
[25] = second compound 3 µM, first compound 0.3 µM

Cc1nc(N2CCC3(CC2)COC(C)C3N)c(CO)nc1Sc1ccnc(N)c1Cl (configuration not stated) + CCN1C(C(=O)NC23CCC(C(=O)O)(CC2)CC3)C(c2cccc(Cl)c2F)C2(C(=O)Nc3cc(Cl)ccc32)C12CCCCC2
pIC50 [1]: < 5.52 | pIC50 [2]: < 5.52 | pIC50 [3]: < 5.52 | pIC50 [4]: < 5.52 | pIC50 [5]: < 5.52 | viability, T/C [6]: 103% | viability, T/C [7]: 119% | viability, T/C [8]: 119% | viability, T/C [9]: 119% | viability, T/C (second compound 0.03 µM, first compound 0.949 µM): 114% | viability, T/C (second compound 0.03 µM, first compound 3 µM): 95.9% | viability, T/C [10]: 110% | viability, T/C [11]: 91.5% | viability, T/C [12]: 123% | viability, T/C [13]: 102% | viability, T/C (second compound 0.0949 µM, first compound 0.949 µM): 104% | viability, T/C (second compound 0.0949 µM, first compound 3 µM): 84.3% | viability, T/C [14]: 101% | viability, T/C [15]: 116% | viability, T/C [16]: 104% | viability, T/C [17]: 101% | viability, T/C (second compound 0.3 µM, first compound 0.949 µM): 110% | viability, T/C (second compound 0.3 µM, first compound 3 µM): 90.6% | viability, T/C [18]: 116% | viability, T/C [19]: 105% | viability, T/C [20]: 98.5% | viability, T/C [21]: 96% | viability, T/C (second compound 0.949 µM, first compound 0.949 µM): 91.9% | viability, T/C (second compound 0.949 µM, first compound 3 µM): 102% | viability, T/C [22]: 99.9% | viability, T/C [23]: 97.5% | viability, T/C [24]: 102% | viability, T/C [25]: 120% | viability, T/C (second compound 3 µM, first compound 0.949 µM): 88.2% | viability, T/C (second compound 3 µM, first compound 3 µM): 115%

C=CC(=O)N1CCN(c2nc(=O)n(-c3c(C)ccnc3C(C)C)c3nc(-c4c(O)cccc4F)c(F)cc23)C(C)C1 (configuration not stated)
viability, T/C (compound 0.0316 µM): 101% and 89.6% and 100% | viability, T/C (compound 0.1 µM): 100% and 95.4% and 104% | viability, T/C (compound 0.316 µM): 105% and 90.3% and 98.7% | viability, T/C (compound 1 µM): 94.5% and 82.8% and 106% | viability, T/C (compound 3.16 µM): 108% (2×) and 100% | viability, T/C (compound 10 µM): 96.6% and 75.9% and 110% | pIC50 (curve of compound): < 5.00

NC1CCC(NC2CC2c2ccccc2)CC1 (configuration not stated) + CNC(C)C(=O)NC1CN(S(=O)(=O)c2cccc(S(=O)(=O)N3CCC4CCC(C(=O)NC(c5ccccc5)c5ccccc5)N4C(=O)C(NC(=O)C(C)NC)C3)c2)CCC2CCC(C(=O)NC(c3ccccc3)c3ccccc3)N2C1=O
pIC50 (curve of first compound, second compound 0.01 µM): < 7.00 | pIC50 (curve of first compound, second compound 0.0316 µM): < 7.00 | pIC50 (curve of first compound, second compound 0.1 µM): < 7.00 | pIC50 (curve of first compound, second compound 0.316 µM): < 7.00 | pIC50 (curve of first compound, second compound 1 µM): < 7.00 | viability, T/C (second compound 0.01 µM, first compound 0.000316 µM): 85.6% | viability, T/C (second compound 0.01 µM, first compound 0.001 µM): 105% | viability, T/C (second compound 0.01 µM, first compound 0.00316 µM): 97.4% | viability, T/C (second compound 0.01 µM, first compound 0.01 µM): 90% | viability, T/C (second compound 0.01 µM, first compound 0.0316 µM): 105% | viability, T/C (second compound 0.01 µM, first compound 0.1 µM): 94.3% | viability, T/C (second compound 0.0316 µM, first compound 0.000316 µM): 98.7% | viability, T/C (second compound 0.0316 µM, first compound 0.001 µM): 96.7% | viability, T/C (second compound 0.0316 µM, first compound 0.00316 µM): 92.3% | viability, T/C (second compound 0.0316 µM, first compound 0.01 µM): 91.6% | viability, T/C (second compound 0.0316 µM, first compound 0.0316 µM): 96.9% | viability, T/C (second compound 0.0316 µM, first compound 0.1 µM): 94.9% | viability, T/C (second compound 0.1 µM, first compound 0.000316 µM): 107% | viability, T/C (second compound 0.1 µM, first compound 0.001 µM): 97.4% | viability, T/C (second compound 0.1 µM, first compound 0.00316 µM): 91.2% | viability, T/C (second compound 0.1 µM, first compound 0.01 µM): 89.8% | viability, T/C (second compound 0.1 µM, first compound 0.0316 µM): 96.9% | viability, T/C (second compound 0.1 µM, first compound 0.1 µM): 97.7% | viability, T/C (second compound 0.316 µM, first compound 0.000316 µM): 99% | viability, T/C (second compound 0.316 µM, first compound 0.001 µM): 106% | viability, T/C (second compound 0.316 µM, first compound 0.00316 µM): 91% | viability, T/C (second compound 0.316 µM, first compound 0.01 µM): 99.9% | viability, T/C (second compound 0.316 µM, first compound 0.0316 µM): 102% | viability, T/C (second compound 0.316 µM, first compound 0.1 µM): 97.8% | viability, T/C (second compound 1 µM, first compound 0.000316 µM): 114% | viability, T/C (second compound 1 µM, first compound 0.001 µM): 106% | viability, T/C (second compound 1 µM, first compound 0.00316 µM): 97.9% | viability, T/C (second compound 1 µM, first compound 0.01 µM): 98.1% | viability, T/C (second compound 1 µM, first compound 0.0316 µM): 94.3% | viability, T/C (second compound 1 µM, first compound 0.1 µM): 101%

NC(=O)C(=Cn1cnc(-c2cc(C(F)(F)F)cc(C(F)(F)F)c2)n1)c1cncnc1 + CCN1C(C(=O)NC23CCC(C(=O)O)(CC2)CC3)C(c2cccc(Cl)c2F)C2(C(=O)Nc3cc(Cl)ccc32)C12CCCCC2
pIC50 [1]: 6.78 | pIC50 [2]: 6.74 | pIC50 [3]: 6.86 | pIC50 [4]: 6.74 | pIC50 [5]: 7.27 | viability, T/C (second compound 0.03 µM, first compound 0.000949 µM): 113% | viability, T/C (second compound 0.03 µM, first compound 0.003 µM): 89.3% | viability, T/C [6]: 84.8% | viability, T/C [7]: 106% | viability, T/C [8]: 56.9% | viability, T/C [9]: 42.4% | viability, T/C (second compound 0.0949 µM, first compound 0.000949 µM): 88.4% | viability, T/C (second compound 0.0949 µM, first compound 0.003 µM): 121% | viability, T/C [10]: 89.2% | viability, T/C [11]: 95.1% | viability, T/C [12]: 65% | viability, T/C [13]: 38.6% | viability, T/C (second compound 0.3 µM, first compound 0.000949 µM): 80.7% | viability, T/C (second compound 0.3 µM, first compound 0.003 µM): 94.9% | viability, T/C [14]: 93.9% | viability, T/C [15]: 87.3% | viability, T/C [16]: 58.4% | viability, T/C [17]: 32.4% | viability, T/C (second compound 0.949 µM, first compound 0.000949 µM): 106% | viability, T/C (second compound 0.949 µM, first compound 0.003 µM): 87.1% | viability, T/C [18]: 99.3% | viability, T/C [19]: 79.9% | viability, T/C [20]: 93.5% | viability, T/C [21]: 15.3% | viability, T/C (second compound 3 µM, first compound 0.000949 µM): 90.1% | viability, T/C (second compound 3 µM, first compound 0.003 µM): 106% | viability, T/C [22]: 108% | viability, T/C [23]: 84% | viability, T/C [24]: 18.3% | viability, T/C [25]: 14.9%
